How the values were obtained:
Type in all cases: biochemical
PI3K-α = PI3K-α (Homo sapiens, UniProt P42336); experiment: PI3K-alpha fluorescence polarization assay; details: 20 μM PIP2, 25 μM ATP
Description: (§1) The reaction buffer was 20 mM HEPES pH7.5, 2 mM MgCl2, 0.05% CHAPS, and 0.01% βME (added fresh). The substrate solution was 40 μM PIP2 (diC8, Echelon, Salt Lake City Utah cat #P-4508, 1 mM in water) and 50 μM ATP in the reaction buffer. Nunc 384-well black polypropylene fluorescent plates were used for PI3K assays. The assay is run by putting 9.5 μl of freshly diluted enzyme in the reaction buffer per well, adding 0.5 μl of diluted drug or DMSO, and mixing. Then 10 μl of the substrate solution is added to each well to start the reaction. A final concentration of 20 μM PIP2 and 25 μM ATP in the reaction was used. Reactions were allowed to proceed for 30-60 minutes at room temperature. After 30-60 minutes, 20 μl of a solution of 10 nM TAMRA detector (Red detector probe-Echelon) and 2.5 uM of GST-murineGRP (1.5 mg/ml in 17% glycerol) was added per well to stop the reaction. The resulting solution was mixed well and allowed to stand for 90-110 minutes before reading plate. Assay Plates were read on Perkin-Elmer Envision plate readers with appropriate filters for Tamra [BODIPY-TMRI(1,3,4,5)P4]. Data obtained were used to calculate enzymatic activity and enzyme inhibition by inhibitor compounds. It is important to keep Red probe solutions dark. This procedure is adapted from Echelon Biosciences Inc procedure for their PI3-Kinase fluorescence polarization activity Assay kit Product number K-1100.

PI3K-γ = PI3K-γ (Homo sapiens, UniProt P48736); experiment: PI3K-gamma fluorescence polarization assay; details: 20 μM PIP2, 25 μM ATP
Chain of PI3K-γ (P48736 whole entry, species assumed): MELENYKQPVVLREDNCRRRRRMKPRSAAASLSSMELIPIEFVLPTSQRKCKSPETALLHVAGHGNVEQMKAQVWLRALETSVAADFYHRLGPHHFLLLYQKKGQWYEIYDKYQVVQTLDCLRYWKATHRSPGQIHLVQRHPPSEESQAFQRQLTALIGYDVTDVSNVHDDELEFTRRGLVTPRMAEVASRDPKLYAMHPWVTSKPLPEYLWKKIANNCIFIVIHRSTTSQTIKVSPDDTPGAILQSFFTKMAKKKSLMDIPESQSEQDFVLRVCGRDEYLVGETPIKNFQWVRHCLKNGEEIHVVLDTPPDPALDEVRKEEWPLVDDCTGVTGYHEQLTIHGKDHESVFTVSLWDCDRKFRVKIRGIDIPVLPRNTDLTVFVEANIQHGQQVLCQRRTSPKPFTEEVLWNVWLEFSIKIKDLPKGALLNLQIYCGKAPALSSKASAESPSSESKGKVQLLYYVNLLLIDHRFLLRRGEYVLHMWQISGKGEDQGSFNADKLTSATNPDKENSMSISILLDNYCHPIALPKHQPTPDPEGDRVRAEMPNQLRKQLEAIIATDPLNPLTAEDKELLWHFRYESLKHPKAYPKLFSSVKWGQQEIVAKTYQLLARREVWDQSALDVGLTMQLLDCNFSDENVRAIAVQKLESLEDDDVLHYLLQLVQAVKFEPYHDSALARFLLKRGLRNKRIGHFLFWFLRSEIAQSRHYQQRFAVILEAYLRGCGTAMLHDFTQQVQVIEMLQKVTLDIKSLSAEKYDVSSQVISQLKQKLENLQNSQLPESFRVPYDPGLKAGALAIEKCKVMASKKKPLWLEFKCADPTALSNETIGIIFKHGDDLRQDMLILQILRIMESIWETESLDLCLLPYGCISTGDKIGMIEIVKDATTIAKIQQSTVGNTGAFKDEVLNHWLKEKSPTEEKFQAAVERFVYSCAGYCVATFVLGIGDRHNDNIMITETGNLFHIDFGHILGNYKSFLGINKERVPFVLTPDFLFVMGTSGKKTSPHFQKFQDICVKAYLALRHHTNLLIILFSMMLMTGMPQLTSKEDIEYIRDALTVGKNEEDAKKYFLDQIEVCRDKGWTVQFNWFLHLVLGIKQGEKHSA
Description: as §1

mTOR = mTOR (Homo sapiens, UniProt P42345); experiment: mTOR enzyme assay (DELFIA, His6-S6K phosphorylation); set-up: FLAG; details: 100 μM ATP, 1.25 μM His6-S6K

Chain of PI3K-α (P42336 whole entry, species assumed): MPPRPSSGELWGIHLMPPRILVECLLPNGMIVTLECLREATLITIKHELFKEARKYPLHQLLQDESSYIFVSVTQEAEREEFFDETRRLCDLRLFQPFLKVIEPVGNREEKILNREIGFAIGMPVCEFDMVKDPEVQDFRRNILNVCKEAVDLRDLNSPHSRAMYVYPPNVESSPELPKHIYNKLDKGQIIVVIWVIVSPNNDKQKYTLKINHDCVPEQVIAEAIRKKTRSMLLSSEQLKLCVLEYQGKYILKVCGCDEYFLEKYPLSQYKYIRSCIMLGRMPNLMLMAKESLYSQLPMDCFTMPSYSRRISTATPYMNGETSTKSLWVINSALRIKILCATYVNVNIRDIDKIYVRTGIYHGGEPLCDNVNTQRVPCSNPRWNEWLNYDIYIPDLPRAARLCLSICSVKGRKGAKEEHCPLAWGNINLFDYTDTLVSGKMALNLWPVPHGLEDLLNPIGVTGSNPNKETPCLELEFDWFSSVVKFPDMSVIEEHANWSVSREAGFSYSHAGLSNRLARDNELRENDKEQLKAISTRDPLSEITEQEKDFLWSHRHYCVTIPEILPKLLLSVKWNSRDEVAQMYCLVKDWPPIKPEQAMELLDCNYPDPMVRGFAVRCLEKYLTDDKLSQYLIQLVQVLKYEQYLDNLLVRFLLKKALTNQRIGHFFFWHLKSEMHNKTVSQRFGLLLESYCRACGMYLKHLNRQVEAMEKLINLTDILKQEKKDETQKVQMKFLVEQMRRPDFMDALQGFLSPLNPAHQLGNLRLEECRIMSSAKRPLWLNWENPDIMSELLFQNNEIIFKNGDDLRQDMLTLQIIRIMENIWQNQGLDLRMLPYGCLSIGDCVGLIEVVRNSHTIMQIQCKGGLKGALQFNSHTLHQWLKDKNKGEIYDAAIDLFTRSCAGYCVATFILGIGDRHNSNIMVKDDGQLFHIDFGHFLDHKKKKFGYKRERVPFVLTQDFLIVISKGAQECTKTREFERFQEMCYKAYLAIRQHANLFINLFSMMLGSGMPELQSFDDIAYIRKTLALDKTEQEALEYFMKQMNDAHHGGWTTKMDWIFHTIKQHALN
Chain of PI3K-α (P27986 whole entry partner, species assumed): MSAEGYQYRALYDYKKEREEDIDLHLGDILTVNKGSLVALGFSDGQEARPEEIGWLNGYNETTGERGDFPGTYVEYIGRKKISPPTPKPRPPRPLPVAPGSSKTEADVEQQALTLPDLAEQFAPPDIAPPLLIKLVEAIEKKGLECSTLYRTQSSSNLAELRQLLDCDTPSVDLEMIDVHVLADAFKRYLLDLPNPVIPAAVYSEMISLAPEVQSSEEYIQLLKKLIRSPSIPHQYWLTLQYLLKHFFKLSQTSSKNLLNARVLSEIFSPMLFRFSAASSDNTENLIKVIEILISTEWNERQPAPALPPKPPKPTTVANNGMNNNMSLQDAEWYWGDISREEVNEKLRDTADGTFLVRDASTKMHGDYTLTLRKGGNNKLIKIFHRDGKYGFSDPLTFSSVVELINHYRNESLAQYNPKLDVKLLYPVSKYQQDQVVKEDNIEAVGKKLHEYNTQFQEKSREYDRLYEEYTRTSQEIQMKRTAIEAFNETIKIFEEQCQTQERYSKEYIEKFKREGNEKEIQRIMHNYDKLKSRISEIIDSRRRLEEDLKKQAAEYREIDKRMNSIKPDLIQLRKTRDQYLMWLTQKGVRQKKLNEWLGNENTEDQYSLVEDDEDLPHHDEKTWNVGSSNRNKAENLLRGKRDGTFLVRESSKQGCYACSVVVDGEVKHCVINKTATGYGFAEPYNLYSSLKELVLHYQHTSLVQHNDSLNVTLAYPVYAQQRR

Compound	IC50 (PI3K-α) [nM]	IC50 (PI3K-γ) [nM]	IC50 (mTOR) [nM]
Cn1ncc2c(Oc3ccc4[nH]ccc4c3)nc(-c3ccccc3)nc21 [Example 76, 4-(1H-indol-5-yloxy)-1-methyl-6-phenyl-1H-pyrazolo[3,4-d]pyrimidine]	558	570	330
Cn1cc(-c2nc(Oc3ccc4[nH]ccc4c3)c3cnn(C)c3n2)cn1 [Example 59, 4-(1H-indol-5-yloxy)-1-methyl-6-(1-methyl-1H-pyrazol-4-yl)-1H-pyrazolo[3,4-d]pyrimidine]	2870	2510	> 20000
Cn1ncc2c(Oc3ccc(C(N)=O)cc3)nc(-c3ccccc3)nc21 [Example 75, 4-[(1-methyl-6-phenyl-1H-pyrazolo[3,4-d]pyrimidin-4-yl)oxy]benzamide]	1020	1720	9200
COc1cccc(-c2nc(Oc3ccc4[nH]ccc4c3)c3cnn(C)c3n2)c1 [Example 38, 4-(1H-indol-5-yloxy)-6-(3-methoxyphenyl)-1-methyl-1H-pyrazolo[3,4-d]pyrimidine]	298	1140	2500
Cn1ncc2c(Oc3ccc4[nH]ccc4c3)nc(-c3cccc(Cl)c3)nc21 [Example 66, 6-(3-chlorophenyl)-4-(1H-indol-5-yloxy)-1-methyl-1H-pyrazolo[3,4-d]pyrimidine]	762	1160	> 20000
CC(C)c1ccc(-c2nc(Oc3ccc4[nH]ccc4c3)c3cnn(C)c3n2)cc1 [Example 58, 4-(1H-indol-5-yloxy)-6-(4-isopropylphenyl)-1-methyl-1H-pyrazolo[3,4-d]pyrimidine]	3800	10600	> 20000
COc1ccc2cc(-c3nc(Oc4ccc5[nH]ccc5c4)c4cnn(C)c4n3)ccc2c1 [Example 57, 4-(1H-indol-5-yloxy)-6-(6-methoxy-2-naphthyl)-1-methyl-1H-pyrazolo[3,4-d]pyrimidine]	3220	> 10000	12000
Cn1ncc2c(Oc3ccc4[nH]ccc4c3)nc(-c3cccc(OCc4ccccc4Cl)c3)nc21 [Example 69, 6-{3-[(2-chlorobenzyl)oxy]phenyl}-4-(1H-indol-5-yloxy)-1-methyl-1H-pyrazolo[3,4-d]pyrimidine]	10800	> 10000	> 20000
Cc1noc(C)c1-c1nc(Oc2ccc3[nH]ccc3c2)c2cnn(C)c2n1 [Example 72, 6-(3,5-dimethylisoxazol-4-yl)-4-(1H-indol-5-yloxy)-1-methyl-1H-pyrazolo[3,4-d]pyrimidine]	580	1350	> 20000
Cn1ncc2c(Oc3ccc4[nH]ccc4c3)nc(-c3ccc(-c4ccccc4)cc3)nc21 [Example 56, 6-biphenyl-4-yl-4-(1H-indol-5-yloxy)-1-methyl-1H-pyrazolo[3,4-d]pyrimidine]	11500	> 10000	16000
Cn1ncc2c(Oc3ccc4[nH]ccc4c3)nc(-c3ccoc3)nc21 [Example 68, 6-(3-furyl)-4-(1H-indol-5-yloxy)-1-methyl-1H-pyrazolo[3,4-d]pyrimidine]	1050	1030	> 20000

Other lines, results leading:

IC50 (PI3K-α) [nM]	IC50 (PI3K-γ) [nM]	IC50 (mTOR) [nM]	Compound
6700	> 10000	16000	CN(c1ccc(C(N)=O)cc1)c1nc(-c2ccccc2)nc2c1cnn2C [Example 34, 4-[methyl(1-methyl-6-phenyl-1H-pyrazolo[3,4-d]pyrimidin-4-yl)amino]benzamide]
6	148	68	CN1Cc2cc(Nc3nc(Nc4ccc(NC(=O)Nc5cccnc5)cc4)nc4c3cnn4C)ccc2C1=O [Example 95, 1-[4-({1-Methyl-4-[(2-methyl-1-oxo-2,3-dihydro-1H-isoindol-5-yl)amino]-1H-pyrazolo[3,4-d]pyrimidin-6-yl}amino)phenyl]-3-pyridin-3-ylurea]
0.2	5	7	CN(C)C1CCN(C(=O)c2ccc(NC(=O)Nc3ccc(Nc4nc(Nc5ccc(C(N)=O)cc5)c5cnn(C)c5n4)cc3)cc2)CC1 [Example 82, 4-({6-[(4-{[(4-{[4-(Dimethylamino)piperidin-1-yl]carbonyl}phenyl)carbamoyl]amino}phenyl)amino]-1-methyl-1H-pyrazolo[3,4-d]pyrimidin-4-yl}amino)benzamide]
215	428	7200	Cn1ncc2c(Oc3ccc4[nH]ccc4c3)nc(-c3cccnc3)nc21 [Example 41, 4-(1H-indol-5-yloxy)-1-methyl-6-pyridin-3-yl-1H-pyrazolo[3,4-d]pyrimidine]
387	600	570	CC(=O)Nc1ccc(Oc2nc(-c3ccc4[nH]ccc4c3)nc3c2cnn3C)cc1 [Example 55, N-(4-{[6-(1H-indol-5-yl)-1-methyl-1H-pyrazolo[3,4-d]pyrimidin-4-yl]oxy}phenyl)acetamide]
266	398	4900	CC(=O)Nc1ccc(Oc2nc(-c3ccc(O)cc3)nc3c2cnn3C)cc1 [Example 54, N-(4-{[6-(4-hydroxyphenyl)-1-methyl-1H-pyrazolo[3,4-d]pyrimidin-4-yl]oxy}phenyl)acetamide]
1.6	11	20	Cn1ncc2c(Nc3ccc4c(c3)CNC4=O)nc(Nc3ccc(NC(=O)Nc4cccnc4)cc3)nc21 [Example 94, 1-[4-({1-Methyl-4-[(1-oxo-2,3-dihydro-1H-isoindol-5-yl)amino]-1H-pyrazolo[3,4-d]pyrimidin-6-yl}amino)phenyl]-3-pyridin-3-ylurea]
277	3600	775	CNC(=O)Nc1cccc(-c2nc(Nc3ccc(C(N)=O)cc3)c3cnn(C)c3n2)c1 [Example 78, 4-(1-methyl-6-(3-(3-methylureido)phenyl)-1H-pyrazolo[3,4-d]pyrimidin-4-ylamino)benzamide]
0.7	5	7	Cn1ncc2c(Nc3ccc(C(N)=O)cc3)nc(Nc3ccc(NC(=O)Nc4ccc(C(=O)N5CCOCC5)cc4)cc3)nc21 [Example 84, 4-[(1-Methyl-6-{[4-({[4-(morpholin-4-ylcarbonyl)phenyl]carbamoyl}amino)phenyl]amino}-1H-pyrazolo[3,4-d]pyrimidin-4-yl)amino]benzamide]
529	2010	3450	Cn1ncc2c(Nc3ccc(C(N)=O)cc3)nc(Nc3cccc(NC(=O)Nc4cccnc4)c3)nc21 [Example 80, 4-{[1-Methyl-6-({3-[(pyridin-3-ylcarbamoyl)amino]phenyl}amino)-1H-pyrazolo[3,4-d]pyrimidin-4-yl]amino}benzamide]
493	2900	1700	CNC(=O)Nc1ccc(-c2nc(Nc3ccc(C(N)=O)cc3)c3cnn(C)c3n2)cc1 [Example 77, 4-(1-methyl-6-(4-(3-methylureido)phenyl)-1H-pyrazolo[3,4-d]pyrimidin-4-ylamino)benzamide]
603	1590	4800	Cn1cc(-c2nc(Nc3ccc(C(N)=O)cc3)c3cnn(C)c3n2)cn1 [Example 62, 4-{[1-methyl-6-(1-methyl-1H-pyrazol-4-yl)-1H-pyrazolo[3,4-d]pyrimidin-4-yl]amino}benzamide]
0.4	5	8	CC(C)N1CCN(C(=O)c2ccc(NC(=O)Nc3ccc(Nc4nc(Nc5ccc(C(N)=O)cc5)c5cnn(C)c5n4)cc3)cc2)CC1 [Example 87, 4-({1-Methyl-6-[(4-{[(4-{[4-(propan-2-yl)piperazin-1-yl]carbonyl}phenyl)carbamoyl]amino}phenyl)amino]-1H-pyrazolo[3,4-d]pyrimidin-4-yl}amino)benzamide]
1500	7470	4700	CC(=O)Nc1ccc(N(C)c2nc(-c3ccccc3)nc3c2cnn3C)cc1 [Example 35, N-{4-[methyl(1-methyl-6-phenyl-1H-pyrazolo[3,4-d]pyrimidin-4-yl)amino]phenyl}acetamide]
27	263	44	Cn1ncc2c(Nc3ccc(C(N)=O)cc3)nc(Nc3ccc(NC(=O)NC4CC4)cc3)nc21 [Example 88, 4-{[6-({4-[(Cyclopropylcarbamoyl)amino]phenyl}amino)-1-methyl-1H-pyrazolo[3,4-d]pyrimidin-4-yl]amino}benzamide]
124	523	70	CC(C)NC(=O)Nc1ccc(Nc2nc(Nc3ccc(C(N)=O)cc3)c3cnn(C)c3n2)cc1 [Example 89, 4-{[1-Methyl-6-({4-[(propan-2-ylcarbamoyl)amino]phenyl}amino)-1H-pyrazolo[3,4-d]pyrimidin-4-yl]amino}benzamide]
2460	> 10000	> 20000	CC(C)c1ccc(-c2nc(Nc3ccc(C(N)=O)cc3)c3cnn(C)c3n2)cc1 [Example 61, 4-{[6-(4-isopropylphenyl)-1-methyl-1H-pyrazolo[3,4-d]pyrimidin-4-yl]amino}benzamide]

Source: patent publication US20100015141A1, “4-PHENOXY-6-ARYL-1H-PYRAZOLO[3,4-D]PYRIMIDINE AND N-ARYL-6-ARYL-1H-PYRAZOLO[3,4-D]PYRIMIDIN-4-AMINE COMPOUNDS, THEIR USE AS MTOR KINASE AND PI3 KINASE INHIBITORS, AND THEIR SYNTHESES” (Wyeth, priority 2008, published 2010)
